For the assay, the target named is T1, human plasma renin (Homo sapiens, UniProt P00797).
T1 construct: from tissue; host or cells: human plasma
T1 sequence (P00797 67-406): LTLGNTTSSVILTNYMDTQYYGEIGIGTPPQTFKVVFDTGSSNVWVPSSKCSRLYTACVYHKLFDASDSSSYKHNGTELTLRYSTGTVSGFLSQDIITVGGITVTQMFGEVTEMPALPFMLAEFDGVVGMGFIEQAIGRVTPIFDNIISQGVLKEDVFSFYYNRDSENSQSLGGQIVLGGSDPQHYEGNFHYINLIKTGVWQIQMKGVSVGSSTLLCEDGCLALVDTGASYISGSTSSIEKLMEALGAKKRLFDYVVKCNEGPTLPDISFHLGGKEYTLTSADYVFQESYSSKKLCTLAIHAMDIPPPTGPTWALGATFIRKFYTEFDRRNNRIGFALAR
The experiment in a line: Renin inhibiting activities (human plasma, angiotensin I by radio immunoassay). The settings on record: pH7.4, 37° C., one hour, read-out: IC50 (50 % inhibition concentrations), renin inhibiting activity. It counts as biochemical. As for the experimental part:
To 156 μl of a 0.2M sodium phosphate buffer solution (pH7.4), 40 μl of a solution mixture of 34 mM 8-hydroxyquinoline and 100 mM disodium ethylenediamine tetraacetate, 4 μl of dimethyl sulfoxide or a dimethyl sulfoxide solution of test compound and 200 μl of human plasma were added and reacted at 37° C. for one hour. Then, pepstatin was added thereto to terminate the reaction, and the amount of the resulting angiotension I was measured by radio immunoassay whereby the inhibiting activity was determined.
As for `CCCC[C@H](NC(=O)[C@H](Cc1cccc2ccccc12)CS(=O)(=O)CC(O)COC(=O)C(C)(C)C)C(=O)N[C@@H](CC1CCCCC1)[C@@H](O)[C@@H](O)CN1CCOCC1` (mixture of isomers) [Example 2, (2S,3R,4S)-4-{L-N-[(2S)-3-[(2RS)-3-pivaloyloxy-2-hydroxypropyl]sulfonyl-2-(1-naphthylmethyl)propionyl]norleucyl}amino-5-cyclohexyl-1-morpholino-2,3-pentanediol], the IC50 amounted to 7.2 nM.

As to `CCCC[C@H](NC(=O)[C@H](Cc1cccc2ccccc12)C[S+]([O-])CC(COC(C)=O)OC(C)=O)C(=O)N[C@@H](CC1CCCCC1)[C@@H](O)[C@@H](O)CN1CCOCC1` (mixture of isomers) [Example 6 (having a high Rf value), (2S,3R,4S)-4-{L-N-[(2S)-3-[(2RS)-2,3-diacetoxypropyl]sulfinyl-2-(1-naphthylmethyl)propionyl]norleucyl}amino-5-cyclohexyl-1-morpholino-2,3-pentanediol], the IC50 was determined as 6 nM.

For `CCCC[C@H](NC(=O)[C@H](Cc1cccc2ccccc12)C[S+]([O-])CC(COC(C)=O)OC(C)=O)C(=O)N[C@@H](CC1CCCCC1)[C@@H](O)[C@@H](O)CN1CCOCC1` (mixture of isomers) [Example 6 (having a low Rf value), (2S,3R,4S)-4-{L-N-[(2S)-3-[(2RS)-2,3-diacetoxypropyl]sulfinyl-2-(1-naphthylmethyl)propionyl]norleucyl}amino-5-cyclohexyl-1-morpholino-2,3-pentanediol], the IC50 was found to be 4.1 nM.

Consider `CCCC[C@H](NC(=O)[C@H](Cc1cccc2ccccc12)CS(=O)(=O)CC(COC(=O)CC)OC(=O)CC)C(=O)N[C@@H](CC1CCCCC1)[C@@H](O)[C@@H](O)CN1CCOCC1` (mixture of isomers) [Example 8, (2S,3R,4S)-4-{L-N-[(2S)-3-[(2RS)-2,3-dipropionyloxypropyl]sulfonyl,-2-(1-naphthylmethyl)propionyl]norleucyl}amino-5-cyclohexyl-1-morpholino-2,3-pentanediol], for which the IC50 was found to be 3.3 nM.

Turning to `CCCC[C@H](NC(=O)[C@H](Cc1cccc2ccccc12)CS(=O)(=O)CC(O)COC(=O)CC)C(=O)N[C@@H](CC1CCCCC1)[C@@H](O)[C@@H](O)CN1CCOCC1` (mixture of isomers) [Example 12, (2S,3R,4S)-4-{L-N-[(2S)-3-[(2RS)-3-propionyloxy-2-hydroxypropyl]sulfonyl-2-(1-naphthylmethyl)propionyl]norleucyl}amino-5-cyclohexyl-1-morpholino-2,3-pentanediol], the IC50 worked out at 4.3 nM.

Consider `CCCC[C@H](NC(=O)[C@H](Cc1cccc2ccccc12)CS(=O)(=O)CC(COC(=O)CC)OC(C)=O)C(=O)N[C@@H](CC1CCCCC1)[C@@H](O)[C@@H](O)CN1CCOCC1` (mixture of isomers) [Example 13, (2S,3R,4S)-4-{L-N-[(2S)-3-[(2RS)-2-acetoxy-3-propionyloxypropyl]sulfonyl-2-(1-naphthylmethyl)propionyl]norleucyl}amino-5-cyclohexyl-1-morpholino-2,3-pentanediol], for which the IC50 worked out at 2 nM.

In the case of `CCCC[C@H](NC(=O)[C@H](Cc1cccc2ccccc12)CS(=O)(=O)CC(COC(=O)CC)OC)C(=O)N[C@@H](CC1CCCCC1)[C@@H](O)[C@@H](O)CN1CCOCC1` (mixture of isomers) [Example 14, (2S,3R,4S)-4-{L-N-[(2S)-3-[(2RS)-2-methoxy-3-propionyloxypropyl]sulfonyl-2-(1-naphthylmethyl)propionyl]norleucyl}amino-5-cyclohexyl-1-morpholino-2,3-pentanediol], the IC50 turned out to be 2 nM.

`CCCC[C@H](NC(=O)[C@H](Cc1ccccc1)CS(=O)(=O)CC(COC(C)=O)OC(C)=O)C(=O)N[C@@H](CC1CCCCC1)[C@@H](O)[C@@H](O)CN1CCOCC1` (mixture of isomers) [Example 15, (2S,3R,4S)-4-{L-N-[(2S)-3-[(2RS)-2,3-diacetoxypropyl]sulfonyl-2-benzylpropionyl]norleucyl}amino-5-cyclohexyl-1-morpholino-2,3-pentanediol]: the IC50 is 7.3 nM.

As to `CCCC[C@H](NC(=O)[C@@H](CSCC(COC(C)=O)OC(C)=O)Cc1ccccc1)C(=O)N[C@@H](CC1CCCCC1)[C@@H](O)[C@@H](O)CN1CCOCC1` (mixture of isomers) [Example 16, (2S,3R,4S)-4-{L-N-[(2S)-3-[(2RS)-2,3-diacetoxypropyl]thio-2-benzylpropionyl]norleucyl}amino-5-cyclohexyl-1-morpholino-2,3-pentanediol], the IC50 was 6 nM.

In the case of `CCCC[C@H](NC(=O)[C@H](Cc1ccccc1)CS(=O)(=O)CC(COC(=O)CC)OC(=O)CC)C(=O)N[C@@H](CC1CCCCC1)[C@@H](O)[C@@H](O)CN1CCOCC1` (mixture of isomers) [Example 17, (2S,3R,4S)-4-{L-N-[(2S)-3-[(2RS)-2,3-dipropionyloxypropyl]sulfonyl-2-benzylpropionyl]norleucyl}amino-5-cyclohexyl-1-morpholino-2,3-pentanediol], the IC50 turned out to be 8.3 nM.

`CCCC[C@H](NC(=O)[C@@H](CSCC(COC(C)=O)OC)Cc1cccc2ccccc12)C(=O)N[C@@H](CC1CCCCC1)[C@@H](O)[C@@H](O)CN1CCOCC1` (mixture of isomers) [Example 27, (2S,3R,4S)-4-{L-N-[(2S)-3-[(2RS)-3-acetoxy-2-methoxypropyl]thio-2-(1-naphthylmethyl)propionyl]norleucyl}amino-5-cyclohexyl-1-morpholino-2,3-pentanediol]: the IC50 turned out to be 2.2 nM.

Consider `CCCC[C@H](NC(=O)[C@H](Cc1cccc2ccccc12)CS(=O)(=O)CC(COC)OC(C)=O)C(=O)N[C@@H](CC1CCCCC1)[C@@H](O)[C@@H](O)CN1CCOCC1` (mixture of isomers) [Example 28, (2S,3R,4S)-4-{L-N-[(2S)-3-[(2RS)-2-acetoxy-3-methoxypropyl]sulfonyl-2-(1-naphthylmethyl)propionyl]norleucyl}amino-5-cyclohexyl-1-morpholino-2,3-pentanediol], for which the IC50 stood at 1.9 nM.

Turning to `CCCC[C@H](NC(=O)[C@H](Cc1cccc2ccccc12)CS(=O)(=O)CC(COC(C)=O)OC)C(=O)N[C@@H](CC1CCCCC1)[C@@H](O)[C@@H](O)CN1CCOCC1` (mixture of isomers) [Example 29, (2S,3R,4S)-4-{L-N-[(2S)-3-[(2RS)-3-acetoxy-2-methoxypropyl]sulfonyl-2-(1-naphthylmethyl)propionyl]norleucyl}amino-5-cyclohexyl-1-morpholino-2,3-pentanediol], the IC50 was found to be 0.76 nM.

Consider `CCCC[C@H](NC(=O)[C@H](Cc1cccc2ccccc12)CS(=O)(=O)CC(COC(C)=O)OCC)C(=O)N[C@@H](CC1CCCCC1)[C@@H](O)[C@@H](O)CN1CCOCC1` (mixture of isomers) [Example 43, (2S,3R,4S)-4-{L-N-[(2S)-3-[(2RS)-3-acetoxy-2-ethoxypropyl]sulfonyl-2-(1-naphthylmethyl)propionyl]norleucyl}amino-5-cyclohexyl-1-morpholino-2,3-pentanediol], for which the IC50 amounted to 2.4 nM.

Consider `CCCC[C@H](NC(=O)[C@H](Cc1cccc2ccccc12)C[S+]([O-])c1ccc(OC(C)=O)cc1)C(=O)N[C@@H](CC1CCCCC1)[C@@H](O)[C@@H](O)CN1CCOCC1` (single isomer, unassigned) [Example 20 (having a low Rf value)], for which the IC50 turned out to be 4 nM.

For the origin of these results see US5424309A, “N-substituted acylamino acid compounds, process for their production and their use” (Banyu Pharmaceutical Co., Ltd., priority 1988, dated 1995).
